Here are results for two molecules from PMC10599620, “Structure of a diatom photosystem II supercomplex containing a member of Lhcx family and dimeric FCPII” (Science Advances, 2023).

One experiment deals with T1, Tp-Lhcf7 homodimer (Thalassiosira pseudonana, UniProt B8BX93).
T1 construct: native FCPII homodimer (Lhcf7_1, Lhcf7_2) within purified PSII-FCPII supercomplex
T1 sequence (B8BX93 31-194 limits assumed): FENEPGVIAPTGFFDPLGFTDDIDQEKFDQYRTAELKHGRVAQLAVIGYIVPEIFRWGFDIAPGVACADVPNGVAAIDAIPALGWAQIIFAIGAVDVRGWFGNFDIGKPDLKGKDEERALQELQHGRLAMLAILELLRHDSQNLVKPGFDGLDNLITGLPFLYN
Description: cryo-EM structure of native supercomplex, […] A. In kind it is binding. To be noted: sites 301 and 302.

A further experiment deals with T2, Tp-Lhcf11 (Thalassiosira pseudonana, UniProt B8BVI1).
T2 construct: native; Lhcf6-Lhcf11 heterodimer within purified PSII-FCPII supercomplex; with Fucoxanthin chlorophyll a/c light-harvesting protein Lhcf6
T2 sequence (B8BVI1 31-196): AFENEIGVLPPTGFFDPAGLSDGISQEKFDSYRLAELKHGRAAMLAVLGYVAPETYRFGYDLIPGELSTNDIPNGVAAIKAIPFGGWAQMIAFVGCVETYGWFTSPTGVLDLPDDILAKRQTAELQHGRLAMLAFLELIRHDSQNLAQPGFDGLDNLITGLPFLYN
Description: cryo-EM structure of native supercomplex, local map […] A. To be noted: site 305. In kind it is binding.

A further experiment addresses T3, Tp-Lhcf7 (Thalassiosira pseudonana).
T3 chain: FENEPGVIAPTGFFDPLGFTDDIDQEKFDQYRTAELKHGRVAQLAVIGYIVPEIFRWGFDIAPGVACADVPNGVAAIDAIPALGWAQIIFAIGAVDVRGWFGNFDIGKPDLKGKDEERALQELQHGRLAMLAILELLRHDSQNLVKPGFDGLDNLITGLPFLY
Nature of the experiment: cryo-EM structure; native PSII-FCPII supercomplex co-purified from T. pseudonana (cells grown under low light), in 50 mM Mes-NaOH pH 6.5, 10 mM NaCl, 5 mM CaCl2, 0.03% alpha-DDM, 2 mg Chl/ml; overall map 2.68 A, local map of the peripheral FCPII 3.19 A. To be noted: both partners purified.

Consider `CC(=O)O[C@H]1CC(C)(C)C(=C=C/C(C)=C/C=C/C(C)=C/C=C/C=C(C)/C=C/C=C(\C)C(=O)C[C@@]23O[C@]2(C)C[C@@H](O)CC3(C)C)[C@](C)(O)C1` [Fx], for which, at Tp-Lhcf7 homodimer, the “cryo-EM structure of native supercomplex, 2.68 A” value is “There are two Fxs, Fx301 and Fx302, in Tp-Lhcf7”. Moreover, the “cryo-EM structure of native supercomplex, local map 3.19 A” value at Tp-Lhcf11 was “two changes of pigment species at Chl c403 and Fx305 sites”.

B1: Tp-Lhcf7 (natural protein)
chain: FENEPGVIAPTGFFDPLGFTDDIDQEKFDQYRTAELKHGRVAQLAVIGYIVPEIFRWGFDIAPGVACADVPNGVAAIDAIPALGWAQIIFAIGAVDVRGWFGNFDIGKPDLKGKDEERALQELQHGRLAMLAILELLRHDSQNLVKPGFDGLDNLITGLPFLY
modifications: binds 12-13 Chl a, 2 fucoxanthins, 2 diadinoxanthins; homodimer in the supercomplex; limits are the residues modelled in 8IWH (Table S4) / binds 12-13 Chl a, 2 fucoxanthins, 2 diadinoxanthins …
Turning to B1, the stoichiometry N (in general, the number of molecules, sites or subunits per partner or assembly) with Tp-Lhcf7 was determined as 2.
